The values below come from patent publication US20070049593A1 (priority 2004, published 2007).

This experiment addresses T1, HCV polymerase (Hepatitis C virus genotype 1b, UniProt P26663).
T1 construct: a region encoding NS5B (J Virol 1991 March, 65(3), 1105-13, 544 amino acids after deletion of 47 amino acids on the C-terminal); 6xHis (C); made in house; host or cells: Escherichia coli
The experiment is described as follows: biochemical. The arrangement: species or system HCV BK strain. The method, boiled down:
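His-tagged NS5B (BK strain, 47-aa C-terminal deletion, E. coli-expressed) at 0.5 μg/ml copied 5 μg/ml run-off RNA bearing the HCV 3′ UTR with 2 μM UTP plus [3H]UTP, 50 μM ATP/GTP, in pH 7.5 Tris with 5 mM MgCl2, 25 °C, 90 min. TCA-precipitated RNA was counted and IC50 calculated.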

Counter-ions that a name gives are not always drawn. Like-named read-outs stand apart in the source and are kept apart here.

T1 sequence (P26663 2420-2963): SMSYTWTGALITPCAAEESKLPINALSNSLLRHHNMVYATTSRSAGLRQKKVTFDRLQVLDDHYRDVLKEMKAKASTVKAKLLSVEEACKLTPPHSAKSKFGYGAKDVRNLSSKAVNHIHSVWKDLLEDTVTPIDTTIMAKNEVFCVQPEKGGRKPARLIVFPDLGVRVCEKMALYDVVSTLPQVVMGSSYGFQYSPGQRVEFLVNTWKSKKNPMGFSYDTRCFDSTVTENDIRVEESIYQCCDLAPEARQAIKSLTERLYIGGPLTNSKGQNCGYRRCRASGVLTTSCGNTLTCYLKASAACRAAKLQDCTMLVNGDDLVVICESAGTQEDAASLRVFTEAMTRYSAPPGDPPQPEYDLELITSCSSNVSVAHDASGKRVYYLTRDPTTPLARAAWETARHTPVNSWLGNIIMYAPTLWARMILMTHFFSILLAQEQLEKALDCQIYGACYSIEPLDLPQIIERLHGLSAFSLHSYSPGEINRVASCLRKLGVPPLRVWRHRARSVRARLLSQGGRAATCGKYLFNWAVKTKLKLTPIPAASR

On to `COC(=O)C(Cc1c[nH]c2ccc(O)cc12)NC(=O)c1ccc2c(C3CCCCC3)c3n(c2c1)CCOc1ccccc1-3` (stereo not drawn) [Example 2-210], for which the IC50 (usually the concentration that gives 50% inhibition) (read-out: HCV polymerase inhibitory activity IC50, 25° C., 90 min, [5,6-3H]UTP incorporation into RNA) was less than 100 nM. `CC(C)(CNC(=O)c1ccc(C(=O)O)cc1)NC(=O)c1ccc2c(C3CCCCC3)c3n(c2c1)CCOc1ccccc1-3` [Example 2-211, N-{2-[(12-cyclohexyl-6,7-dihydro-5-oxa-7a-azadibenzo[a,e]azulene-9-carbonyl)amino]-2-methylpropyl}terephthalamic acid] gave a concentration for half-maximal inhibition (IC50) of 100 to 1000 nM. `COC(=O)c1ccc(C(=O)NCC(C)(C)NC(=O)c2ccc3c(C4CCCCC4)c4n(c3c2)CCOc2ccccc2-4)cc1` [Example 2-212, methyl N-{2-[(12-cyclohexyl-6,7-dihydro-5-oxa-7a-azadibenzo[a,e]azulene-9-carbonyl)amino]-2-methylpropyl}-terephthalamate] gave a half-inhibitory concentration (IC50) of 100 to 1000 nM. `CN(C)Cc1ccc(NC(=O)C(C)(C)NC(=O)c2ccc3c(C4CCCCC4)c4n(c3c2)CCOc2ccccc2-4)cc1` [Example 2-213, N-[1-(4-dimethylaminomethylphenylcarbamoyl)-1-methylethyl]-12-cyclohexyl-6,7-dihydro-5-oxa-7a-azadibenzo[a,e]azulene-9-carboxamide] gave a concentration for half-maximal inhibition (IC50) of less than 100 nM.

As to `CC(C)(NC(=O)c1ccc2c(C3CCCCC3)c3n(c2c1)CCOc1ccccc1-3)c1nc2cc(C(=O)O)ccc2[nH]1` [Example 2-214, 2-{1-[(12-cyclohexyl-6,7-dihydro-5-oxa-7a-azadibenzo[a,e]azulene-9-carbonyl)amino]-1-methylethyl}-1H-benzimidazole-5-carboxylic acid], the IC50 was less than 100 nM. On the same count and under the same terms, the result for `CC(C)(Cc1ccc(C(=O)O)cc1)NC(=O)c1ccc2c(C3CCCCC3)c3n(c2c1)CCOc1ccccc1-3` [Example 2-216, 4-{2-[(12-cyclohexyl-6,7-dihydro-5-oxa-7a-azadibenzo[a,e]azulene-9-carbonyl)amino]-2-methylpropyl}benzoic acid] reads 100 to 1000 nM; that for `O=C(N[C@H](CO)Cc1ccc(O)cc1)c1ccc2c(C3CCCCC3)c3n(c2c1)CCOc1ccccc1-3` [Example 2-217, N—[(S)-1-hydroxymethyl-2-(4-hydroxyphenyl)ethyl]-12-cyclohexyl-6,7-dihydro-5-oxa-7a-azadibenzo[a,e]azulene-9-carboxamide], less than 100 nM; that for `COC(=O)[C@H](Cc1ccc(OC)cc1)NC(=O)c1ccc2c(C3CCCCC3)c3n(c2c1)CCOc1ccccc1-3` [Example 2-218, methyl (S)-2-[(12-cyclohexyl-6,7-dihydro-5-oxa-7a-azadibenzo[a,e]azulene-9-carbonyl)amino]-3-(4-methoxyphenyl)propionate], less than 100 nM. Compound `COc1ccc(CC(C)(C)NC(=O)c2ccc3c(C4CCCCC4)c4n(c3c2)CCOc2ccccc2-4)cc1` [Example 2-219, N-[2-(4-methoxyphenyl)-1,1-dimethylethyl]-12-cyclohexyl-6,7-dihydro-5-oxa-7a-azadibenzo[a,e]azulene-9-carboxamide] came in with an IC50 of 100 to 1000 nM. Consider `CC(C)(Cc1ccc(O)cc1)NC(=O)c1ccc2c(C3CCCCC3)c3n(c2c1)CCOc1ccccc1-3` [Example 2-220, N-[2-(4-hydroxyphenyl)-1,1-dimethylethyl]-12-cyclohexyl-6,7-dihydro-5-oxa-7a-azadibenzo[a,e]azulene-9-carboxamide], for which the IC50 was 100 to 1000 nM. Consider `O=C(O)c1ccc2c(C3CCCCC3)c3n(c2c1)CCOc1c-3cccc1N(CCc1ccccc1)CCN1CCCCC1` [Example 2-221, 12-cyclohexyl-4-{N-phenethyl-N-[2-(piperidin-1-yl)ethyl]amino}-6,7-dihydro-5-oxa-7a-azadibenzo[a,e]azulene-9-carboxylic acid], for which the half-maximal inhibitory concentration (IC50) is less than 100 nM. `CC(=O)N1CCC(NC(=O)c2ccc3c(C4CCCCC4)c4n(c3c2)CCOc2ccccc2-4)(C(=O)Nc2ccc(/C=C/C(=O)O)cc2)CC1` [Example 2-222, (E)-3-[4-({1-acetyl-4-[(12-cyclohexyl-6,7-dihydro-5-oxa-7a-azadibenzo[a,e]azulene-9-carbonyl)amino]piperidine-4-carbonyl}amino)phenyl]acrylic acid] showed an IC50 of less than 100 nM. Compound `CN1CCC(NC(=O)c2ccc3c(C4CCCCC4)c4n(c3c2)CCOc2ccccc2-4)(C(=O)Nc2ccc(/C=C/C(=O)O)cc2)CC1` [Example 2-223, (E)-3-[4-({4-[(12-cyclohexyl-6,7-dihydro-5-oxa-7a-azadibenzo[a,e]azulene-9-carbonyl)amino]-1-methylpiperidine-4-carbonyl]amino)phenyl]acrylic acid] came in with an IC50 of less than 100 nM. Turning to `CC(C)(COc1ccc(N)cc1)NC(=O)c1ccc2c(C3CCCCC3)c3n(c2c1)CCOc1ccccc1-3` [Example 2-224, N-[2-(4-aminophenoxy)-1,1-dimethylethyl]-12-cyclohexyl-6,7-dihydro-5-oxa-7a-azadibenzo[a,e]azulene-9-carboxamide], the half-maximal inhibitory concentration (IC50) is less than 100 nM. The compound `CC(C)(NC(=O)c1ccc2c(C3CCCCC3)c3n(c2c1)CCOc1ccccc1-3)c1nc2ccc(C(N)=O)cc2[nH]1` [Example 2-225, N-[1-(6-carbamoyl-1H-benzimidazol-2-yl)-1-methylethyl]-12-cyclohexyl-6,7-dihydro-5-oxa-7a-azadibenzo[a,e]azulene-9-carboxamide] returned an IC50 of less than 100 nM. On to `CC(C)(COc1ccc(N2CCCC2=O)cc1)NC(=O)c1ccc2c(C3CCCCC3)c3n(c2c1)CCOc1ccccc1-3` [Example 2-226, N-{1,1-dimethyl-2-[4-(2-oxopyrrolidin-1-yl)phenoxy]ethyl}-12-cyclohexyl-6,7-dihydro-5-oxa-7a-azadibenzo[a,e]azulene-9-carboxamide], for which the IC50 is less than 100 nM. `Cc1nc(C(C)(C)NC(=O)c2ccc3c(C4CCCCC4)c4n(c3c2)CCOc2ccccc2-4)[nH]c1C(=O)O` [Example 2-227, 2-{1-[(12-cyclohexyl-6,7-dihydro-5-oxa-7a-azadibenzo[a,e]azulene-9-carbonyl)amino]-1-methylethyl}-5-methyl-3H-imidazole-4-carboxylic acid] gave an IC50 of less than 100 nM. On to `CC(C)(NC(=O)c1ccc2c(C3CCCCC3)c3n(c2c1)CCOc1ccccc1-3)c1ccc(OCc2ccccc2)cc1` [Example 2-228, N-[1-(4-benzyloxyphenyl)-1-methylethyl]-12-cyclohexyl-6,7-dihydro-5-oxa-7a-azadibenzo[a,e]azulene-9-carboxamide], for which the IC50 is less than 100 nM. `O=C(O)CN1CCC(NC(=O)c2ccc3c(C4CCCCC4)c4n(c3c2)CCOc2ccccc2-4)(C(=O)O)CC1` [Example 2-229, 1-carboxymethyl-4-[(12-cyclohexyl-6,7-dihydro-5-oxa-7a-azadibenzo[a,e]azulene-9-carbonyl)amino]piperidine-4-carboxylic acid monohydrochloride]: the 50% inhibitory concentration (IC50) was less than 100 nM. Same read-out and setting: the result for `CC(C)(NC(=O)c1ccc2c(C3CCCCC3)c3n(c2c1)CCOc1ccccc1-3)c1ccc(O)cc1` [Example 2-230, N-[1-(4-hydroxyphenyl)-1-methylethyl]-12-cyclohexyl-6,7-dihydro-5-oxa-7a-azadibenzo[a,e]azulene-9-carboxamide] reads less than 100 nM. Consider `CCN(CCN1CCCCCC1)c1cccc2c1OCCn1c-2c(C2CCCCC2)c2ccc(C(=O)O)cc21` [Example 2-231, 4-{N-[2-(azepan-1-yl)ethyl]-N-ethylamino}-12-cyclohexyl-6,7-dihydro-5-oxa-7a-azadibenzo[a,e]azulene-9-carboxylic acid dihydrochloride], for which the IC50 is less than 100 nM. In the case of `CCN(CCC1CCN(C(C)=O)CC1)c1cccc2c1OCCn1c-2c(C2CCCCC2)c2ccc(C(=O)O)cc21` [Example 2-232, 4-{N-[2-(1-acetylpiperidin-4-yl)ethyl]-N-ethylamino)-12-cyclohexyl-6,7-dihydro-5-oxa-7a-azadibenzo[a,e]azulene-9-carboxylic acid], the IC50 was less than 100 nM. For the compound `CC(=O)N1CCC(CCN(C(C)=O)c2cccc3c2OCCn2c-3c(C3CCCCC3)c3ccc(C(=O)O)cc32)CC1` [Example 2-233, 4-(N-acetyl-N-[2-(1-acetylpiperidin-4-yl)ethyl]amino}-12-cyclohexyl-6,7-dihydro-5-oxa-7a-azadibenzo[a,e]azulene-9-carboxylic acid], the IC50 was less than 100 nM. Consider `CC(C)(CN1CCC(O)CC1)NC(=O)c1ccc2c(C3CCCCC3)c3n(c2c1)CCOc1ccccc1-3` [Example 2-234, N-[2-(4-hydroxypiperidin-1-yl)-1,1-dimethylethyl]-12-cyclohexyl-6,7-dihydro-5-oxa-7a-azadibenzo[a,e]azulene-9-carboxamide], for which the IC50 lay in the range of 100 to 1000 nM. Same read-out and setting: the result for `COC(=O)c1nc(C(C)(C)NC(=O)c2ccc3c(C4CCCCC4)c4n(c3c2)CCOc2ccccc2-4)oc1C` [Example 2-235, methyl 2-{1-[(12-cyclohexyl-6,7-dihydro-5-oxa-7a-azadibenzo[a,e]azulene-9-carbonyl)amino]-1-methylethyl}-5-methyloxazole-4-carboxylate] reads less than 100 nM; that for `Cc1oc(C(C)(C)NC(=O)c2ccc3c(C4CCCCC4)c4n(c3c2)CCOc2ccccc2-4)nc1C(=O)O` [Example 2-236, 2-{1-[(12-cyclohexyl-6,7-dihydro-5-oxa-7a-azadibenzo[a,e]azulene-9-carbonyl)amino]-1-methylethyl}-5-methyloxazole-4-carboxylic acid], less than 100 nM; that for `COc1ccc(C[C@H](NC(=O)c2ccc3c(C4CCCCC4)c4n(c3c2)CCOc2ccccc2-4)C(=O)O)cc1` [Example 2-237, (S)-2-[(12-cyclohexyl-6,7-dihydro-5-oxa-7a-azadibenzo[a,e]azulene-9-carbonyl)amino]-3-(4-methoxyphenyl)propionic acid], less than 100 nM.
